Patent US20200157145A1, “NEUTRAL-CATIONIC PEPTOIDS AND USES THEREOF” (Stealth BioTherapeutics Corp, priority 2018, published 2020)

Test system: isolated guinea pig heart exposed to global ischemia
Test: Cardiac ischemia-reperfusion injury in isolated perfused guinea pig heart (global no-flow ischemia 20 min, reperfusion 120 min)
Method: Procedures for the use of guinea pigs are in accordance with the guidelines established by the American Physiological Society. Adult male guinea pigs (200-300 g) will be anesthetized with a ketamine/xylazine cocktail (85/15 mg mL, respectively; ip delivery). Upon the absence of reflexes to ensure a deep plane of anesthesia, hearts will be excised via midline thoracotomy and immersed in ice-cold saline. Hearts will be cannulated by the aorta and perfused with a modified Krebs-Henseleit buffer containing (in mM): 118 NaCl, 24 NaHCO3, 4.75 KCl, 1.2 KH2PO4, 1.2 MgSO4, 2.0 CaCl2, and 10 glucose (gassed with 95/5% O2/CO2). Hearts will be placed in a buffer-filled perfusion chamber and maintained at 37° C. for the duration of the experiments.
Following the initiation of perfusion, hearts will be instrumented for the simultaneous observation of mechanical and electrical function. A buffer-filled latex balloon will be inserted into the left ventricle (via the mitral valve) for the measurement of left ventricular developed pressure, with balloon volume adjusted to establish an end-diastolic pressure of 5-8 mmHg. Three electrodes will be placed into the buffer-filled perfusion chamber for the measurement of volume-conducted ECG. A pre-established protocol of electrode placement will be utilized to obtain a signal analogous to Lead II of a typical 12-lead ECG. All physiological parameters will be continuously monitored and stored on a personal computer using commercially available software (Chart, AD Instruments).
After a 10-minute equilibration period, hearts will be divided into the following different treatment groups: 1. Control followed by I/R; 2. Administration of 1 nM ηArg-η2′6′-Dmt-ηLys-ηPhe-NH2 in the perfusate both before and after index ischemia; 3. Post-ischemic administration of 1 nM ηArg-η2′6′-Dmt-ηLys-ηPhe-NH2 using both a bolus dose (also 1 nM, administered immediately prior to reperfusion) and ηArg-η2′6′-Dmt-ηLys-ηPhe-NH2 in the reperfusion solution; 4. Positive control using ischemic preconditioning; 3 cycles of 5 min I/R before index ischemia).
Hearts will be exposed to global no-flow ischemia by stopping perfusion for 20 minutes. At the end of the index ischemia, static buffer from the perfusion lines will be washed out (via an accessory port proximal to the aortic cannula) and reperfusion ensued for 120 minutes. Administration of all compounds in the perfusate will be accomplished via dissolving the compound(s) in solution prior to administration. The reperfusion bolus dose will be delivered to the heart via syringe through a drug-delivery port just above the aortic cannula. At the end of the 2 h reperfusion protocol, the LV will be dissected, sliced into 5 mm-thick slices, incubated in triphenyltetrazolium chloride (TTC) for 10 minutes (37° C.), and digitally photographed for subsequent infarct size analysis. Infarct sizes are expressed as the infarcted area as a percentage of the LV (in the global ischemia model, the entire LV constitutes the zone-at-risk).

[1] = peptoid 0.01 nM, 0.1 nM, cyclosporin-A 0.2 μM

Question: For ηArg-η2′6′-Dmt-ηLys-ηPhe-NH2, which “Incidence of VT/VF (ventricular tachycardia and/or fibrillation)” value (0.01 nM/0.1 nM(30 min R)) is on record?
Answer: protection against the incidence of VT/VF

Question: And the “Infarct size (infarcted area as a percentage of the LV)” value (1 nM or 0.1 nM or 0.001 nM or 0.01 nM/0.1 nM(30 min R), 20 min global ischemia, compared to control group)?
Answer: lower incidence of infarction (infarction size)

Question: And the “Baseline coronary flow rates” value (groups receiving 0.01 nM)?
Answer: slightly lower than other groups

Question: And the Baseline heart rate [1]?
Answer: no discernable effects

Question: What about the “Baseline left ventricular developed pressure” value [1] of the same substance?
Answer: no discernable effects

Question: What about the “Baseline rates of contraction/relaxation” value [1] of the same substance?
Answer: no discernable effects

Question: What about the Coronary flow rates (peptoid 1 nM, 0.1 nM, 0.01 nM to 0.1 nM, cyclosporin-A 0.2 uM, whole time or at reperfusion, vs control) of the same substance?
Answer: no differences in coronary flow rates
